Results on five molecules are retold here after ChEMBL document CHEMBL1201862, “PubChem BioAssay data set” (2004).

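Grown in 96-well plates, cells were treated for 48 hours with each compound at five concentrations. Insufficient inhibition: endpoint recorded as highest concentration tested. The concentration for 50% growth inhibition is given as GI50.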 The source made the active and inactive calls. Cut-off read from the data, not from the text of the source: active = GI50 up to about 1.1 µM and inactive = higher. Bounds are passed on as bounds.

What all share (test): inhibition of tumour cell growth, NCI panel, 48 h
The test system of experiment [1] is SF-539.
Experiment [2] concerns HCC 2998.
For experiment [3], the system named is HOP-18.
The test system of experiment [4] is DMS-114.
In experiment [5] the test system is HCT-15.
Experiment [6] has as its system SK-MEL-2.
For experiment [7], the system named is XF498.
For experiment [8], the system named is KM-20L2.
The test system of experiment [9] is OVCAR-8.
In experiment [10] the test system is K562.
In experiment [11] the test system is 786-0.
Experiment [12] concerns DMS-273.
Experiment [13] has as its system SR.
In experiment [14] the test system is SK-MEL-28.
For experiment [15], the system named is RPMI-8226.
In experiment [16] the test system is NCI/ADR-RES.

Regarding `COC1=C(OC)C(=O)c2cc(SC)c(=O)c(SC)cc2C1=O`, the GI50 in experiment [1] was 12.1 µM (inactive); in experiment [2], > 100 µM (inactive); in [3] it was 20.2 µM (inactive); in experiment [4], 3.4 µM (inactive); in experiment [5], 25.1 µM; in experiment [6], 3.85 µM (inactive). Further, the GI50 in [7] is 5.14 µM (inactive); in [8], > 100 µM (inactive); in experiment [9], 12.1 µM (inactive); in experiment [10], 15.9 µM (inactive); in experiment [11] it was 17.3 µM (inactive); in experiment [12], 25.5 µM (inactive). The GI50 is 4.33 µM (inactive) in experiment [13], 13.5 µM (inactive) in experiment [14] and 15.2 µM (inactive) in [15].
As to `CSCSCC(CO)NC(=O)/C(C)=C\c1c(C)[nH]c(=O)[nH]c1=O` (configuration not stated), the GI50 in experiment [1] is > 250 µM (inactive); in [2], > 250 µM (inactive); in experiment [3] it was > 250 µM (inactive); in experiment [4], > 250 µM (inactive); in experiment [5], 225 µM; in experiment [6] it was > 250 µM (inactive). Besides, the GI50 is > 64.6 µM (inactive) in experiment [7]; > 250 µM (inactive) in experiment [8]; > 250 µM (inactive) in [9]; > 250 µM (inactive) in experiment [16]; > 250 µM (inactive) in experiment [10]; > 250 µM (inactive) in experiment [12]. Further, the GI50 in [14] and in experiment [15] was > 250 µM (inactive) each time.
Turning to `CN1CCc2[nH]c3ccccc3c2C1`, the GI50 in experiment [1] is > 100 µM (inactive); in experiment [2], > 100 µM (inactive); in experiment [3], > 100 µM (inactive); in [4], > 100 µM (inactive); in [5], over 100 µM; in experiment [6], > 100 µM (inactive). Further, the GI50 in experiment [7], in experiment [8], in [9], in experiment [16], in experiment [10] and in experiment [12] was > 100 µM (inactive) each time. In addition, the GI50 in experiment [14] and in [15] was > 100 µM (inactive) each time.
Regarding `CCOC(=O)C1=C(c2ccccc2)N(C(C)=O)Cc2ccccc21`, the GI50 in experiment [1] was 16.3 µM (inactive); in experiment [2], 24.7 µM (inactive); in experiment [3], 28.1 µM (inactive); in experiment [4], 10.4 µM (inactive); in experiment [5], 21.4 µM; in experiment [6], 17.5 µM (inactive). For the same molecule, the GI50 was 11.9 µM (inactive) in [7]; 21.6 µM (inactive) in experiment [8]; 21.3 µM (inactive) in experiment [9]; 14.5 µM (inactive) in experiment [10]; 28.1 µM (inactive) in [11]; 15.1 µM (inactive) in experiment [12]. For the same molecule, the results for the GI50 in experiment [13], in experiment [14] and in experiment [15] were 9.73 µM (inactive), 16.8 µM (inactive) and 13.5 µM (inactive), respectively.
As to `C/C(=C\c1ccccc1)C(=O)CCN1CCOCC1`, the GI50 in experiment [1] was 18.3 µM (inactive); in [2], 16.7 µM (inactive); in experiment [3], 18.3 µM (inactive); in experiment [4] it was 18.7 µM (inactive); in experiment [5], 16.3 µM; in experiment [6], 27.2 µM (inactive). Moreover, the GI50 in experiment [7] was 18.3 µM (inactive); in experiment [8], 19.5 µM (inactive); in [9], 20.5 µM (inactive); in [16], 21.8 µM (inactive); in experiment [10], 30.1 µM (inactive); in [12], 19.7 µM (inactive). Besides, the GI50 is 19.4 µM (inactive) in [14] and 3.15 µM (inactive) in [15].
